Drawing on patent US9580449B2, “Compositions and methods for the production of pyrimidine and pyridine compounds with BTK inhibitory activity” (Merck Patent GmbH, priority 2011, dated 2017), this text covers IC50 for 29 compounds.

SMILES strings stand for the structures. A value given as a limit tells only on which side of the number the result lay.

full-length human BTK, sequence (Q06187 whole entry): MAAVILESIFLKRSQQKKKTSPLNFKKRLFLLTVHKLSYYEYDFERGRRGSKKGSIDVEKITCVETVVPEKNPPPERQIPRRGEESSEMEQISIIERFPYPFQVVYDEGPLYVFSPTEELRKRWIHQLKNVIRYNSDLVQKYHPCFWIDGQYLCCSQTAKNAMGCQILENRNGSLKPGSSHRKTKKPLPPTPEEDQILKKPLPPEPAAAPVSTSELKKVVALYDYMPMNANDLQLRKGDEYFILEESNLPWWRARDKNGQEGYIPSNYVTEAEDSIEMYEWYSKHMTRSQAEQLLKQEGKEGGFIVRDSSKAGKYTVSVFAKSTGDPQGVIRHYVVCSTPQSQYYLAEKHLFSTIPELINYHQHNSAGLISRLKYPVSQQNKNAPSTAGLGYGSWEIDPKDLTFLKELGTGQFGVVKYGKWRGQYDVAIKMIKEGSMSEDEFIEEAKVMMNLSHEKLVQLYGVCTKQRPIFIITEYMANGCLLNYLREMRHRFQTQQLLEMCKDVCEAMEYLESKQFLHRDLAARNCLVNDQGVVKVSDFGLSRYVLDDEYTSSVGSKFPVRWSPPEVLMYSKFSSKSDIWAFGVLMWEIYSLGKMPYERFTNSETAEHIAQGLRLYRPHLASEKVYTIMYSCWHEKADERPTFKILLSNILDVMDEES

In this assay the target is full-length human BTK (Homo sapiens (Human), UniProt Q06187). Nature of the assay: BTK IC50 enzyme assay (microfluidic off-chip mobility shift kinase assay). Format: biochemical. The following applies: incubated for 90 min. at 27 C; read-out: Time Dependent BTK Enzyme Assay IC50. The method, boiled down:
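Off-chip microfluidic mobility shift assay on full-length human BTK; substrate-to-product conversion measured by charge/mass separation of phosphorylated peptide after reaction stop.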
As for `Nc1ncnc(Oc2cccc(NC(=O)CCl)c2)c1-c1ccc(OCc2cccc(F)c2)cc1` [A345, N-(3-{6-Amino-5-[4-(3-fluoro-benzyloxy)-phenyl]-pyrimidin-4-yloxy}-phenyl)-2-chloro-acetamide], the IC50 was less than 100 nM.
In the case of `C=CC(=O)Nc1cccc(Oc2ncnc(N)c2-c2cnn(Cc3cccc(Cl)c3)c2)c1` [A191, N-(3-((6-amino-5-(1-(3-chlorobenzyl)-1H-pyrazol-4-yl)pyrimidin-4-yl)oxy)phenyl)acrylamide], the half-maximal inhibitory concentration (IC50) is less than 100 nM.
The figure for `C=CC(=O)N1CCC(O)(CNc2ncnc(N)c2-c2ccc(Oc3cccc(C(F)(F)F)c3)cc2)CC1` [A169, 1-(4-(((6-amino-5-(4-(3-(trifluoromethyl)phenoxy)phenyl)pyrimidin-4-yl)amino)methyl)-4-hydroxypiperidin-1-yl)prop-2-en-1-one] is less than 100 nM.
`C=CC(=O)N1C2CCC1CC(CNc1ncnc(N)c1-c1cnn(Cc3ccccc3)c1)C2` (centres unmarked) [A209, 1-(3-(((6-amino-5-(1-benzyl-1H-pyrazol-4-yl)pyrimidin-4-yl)amino)methyl)-8-azabicyclo[3.2.1]octan-8-yl)prop-2-en-1-one]: the half-inhibitory concentration (IC50) is less than 1000 nM.
For `CCC(=O)Nc1cccc(-c2c(N)ncnc2Oc2ccc(Oc3ccccc3)cc2)c1` [A325, N-(3-(4-amino-6-(4-phenoxyphenoxy)pyrimidin-5-yl)phenyl)propionamide], the IC50 is greater than 1000 nM.
As for `C=CC(=O)Nc1cncc(Oc2ncnc(N)c2-c2cnn(Cc3ccccc3)c2)c1` [A189, N-(5-((6-amino-5-(1-benzyl-1H-pyrazol-4-yl)pyrimidin-4-yl)oxy)pyridin-3-yl)acrylamide], the IC50 was less than 100 nM.
For `C=CC(=O)N1CCC(CCNc2ncnc(N)c2-c2ccc(Oc3ccccc3)cc2)CC1` [A16, 1-(4-(2-((6-amino-5-(4-phenoxyphenyl)pyrimidin-4-yl)amino)ethyl)piperidin-1-yl)prop-2-en-1-one], the IC50 is greater than 1000 nM.
Regarding `C=CC(=O)N1CCC(CNc2ncnc(N)c2-c2ccc(Oc3cccnc3)cc2)CC1` [A96, 1-(4-(((6-amino-5-(4-(pyridin-3-yloxy)phenyl)pyrimidin-4-yl)amino)methyl)piperidin-1-yl)prop-2-en-1-one], the half-inhibitory concentration (IC50) is less than 1000 nM.
On to `C=CC(=O)N[C@H]1CC[C@@H](Nc2ncnc(N)c2-c2ccc(OCc3ccccc3)cc2)CC1` [A154], for which the IC50 is greater than 1000 nM.
The figure for `C=CC(=O)Nc1cccc(Oc2ncnc(N)c2-c2ccc(OCc3ccccc3)c(F)c2)c1` [A348, N-{3-[6-Amino-5-(4-benzyloxy-3-fluoro-phenyl)-pyrimidin-4-yloxy]-phenyl}-acrylamide] is less than 100 nM; for `CC=CC(=O)[C@H]1CCC[C@H](Nc2ncnc(N)c2-c2ccc(Oc3ccccc3)cc2)C1` [A144, 1-((1S,3S)-3-(6-Amino-5-(4-phenoxyphenyl)-pyrimidin-4-ylamino)-cyclohexyl)-but-2-en-1-one] it is less than 100 nM.
The same measure for `C=CC(=O)N1CCC(CNc2ncnc(N)c2-c2ccc(OC3CCCCC3)cc2)CC1` [A99, 1-(4-(((6-amino-5-(4-(cyclohexyloxy)phenyl)pyrimidin-4-yl)amino)methyl)piperidin-1-yl)prop-2-en-1-one]: less than 1000 nM; for `Nc1cccc(Oc2ccnc(N)c2-c2ccc(Oc3ccccc3)cc2)c1` [A313, 4-(3-aminophenoxy)-3-(4-phenoxyphenyl)pyridin-2-amine]: greater than 1000 nM.
The same measure for `C=CC(=O)Nc1cccc(Oc2ncnc(N)c2-c2cccc(S(N)(=O)=O)c2)c1` [A163, N-(3-((6-amino-5-(3-sulfamoylphenyl)pyrimidin-4-yl)oxy)phenyl)acrylamide]: greater than 1000 nM; for `C=CC(=O)Nc1cccc(Oc2ncnc(N)c2-c2cnn(Cc3ccc(F)cc3)c2)c1` [A187, N-(3-((6-amino-5-(1-(4-fluorobenzyl)-1H-pyrazol-4-yl)pyrimidin-4-yl)oxy)phenyl)acrylamide]: less than 100 nM.
Regarding `C/C=C/C(=O)NCc1cccc(-c2cnccc2Oc2ccc(Oc3ccccc3)cc2)c1` [A327, (E)-N-(3-(4-(4-phenoxyphenoxy)pyridin-3-yl)benzyl)but-2-enamide], the IC50 is greater than 1000 nM.
The figure for `CN(C)C/C=C/C(=O)N[C@H]1C[C@H](Nc2ncnc(N)c2-c2ccc(Oc3ccccc3)cc2)C1` [A228, (E)-N-(1,3-trans-3-((6-amino-5-(4-phenoxyphenyl)pyrimidin-4-yl)amino)cyclobutyl)-4-(dimethylamino)but-2-enamide] is less than 1000 nM; for `C=CC(=O)N1CCC(CNc2ncnc(N)c2-c2ccc(OC)c(OC)c2)CC1` [A82, 1-(4-(((6-amino-5-(3,4-dimethoxyphenyl)pyrimidin-4-yl)amino)methyl)piperidin-1-yl)prop-2-en-1-one] it is greater than 1000 nM.
The same measure for `Nc1ccc(-c2cnccc2Oc2ccc(Oc3ccccc3)cc2)cc1` [A314, 4-(4-(4-phenoxyphenoxy)pyridin-3-yl)aniline]: greater than 1000 nM; for `C=CC(=O)Nc1cccc(Oc2ccnc(N)c2-c2ccc(OCc3ccccc3)cc2)c1` [A149, N-(3-((2-amino-3-(4-(benzyloxy)phenyl)pyridin-4-yl)oxy)phenyl)acrylamide]: less than 1000 nM; for `C=CS(=O)(=O)Nc1cccc(Oc2ncnc(N)c2-c2ccc(Oc3ccccc3)cc2)c1` [A58, N-(3-((6-amino-5-(4-phenoxyphenyl)pyrimidin-4-yl)oxy)phenyl)ethenesulfonamide]: less than 100 nM.
The figure for `C=CC(=O)NCc1cccc(-c2cnccc2Oc2ccc(Oc3ccccc3)cc2)c1` [A302, N-(3-(4-(4-phenoxyphenoxy)pyridin-3-yl)benzyl)acrylamide] is greater than 1000 nM; for `C=CC(=O)Nc1cccc(Oc2ncnc(N)c2-c2ccc(OCc3ccccc3)cc2)c1` [A249, N-(3-((6-amino-5-(4-(benzyloxy)phenyl)pyrimidin-4-yl)oxy)phenyl)acrylamide] it is less than 100 nM.
`C=CC(=O)Nc1cccc(Oc2ncnc(N)c2-c2cnn(Cc3cccc(C(F)(F)F)c3)c2)c1` [A195, N-(3-((6-amino-5-(1-(3-(trifluoromethyl)benzyl)-1H-pyrazol-4-yl)pyrimidin-4-yl)oxy)phenyl)acrylamide]: the IC50 was less than 100 nM.
The same measure for `C=CC(=O)Nc1cccc(Oc2ncnc(N)c2-c2cnn(Cc3ccccc3F)c2)c1` [A184, N-(3-((6-amino-5-(1-(2-fluorobenzyl)-1H-pyrazol-4-yl)pyrimidin-4-yl)oxy)phenyl)acrylamide]: less than 100 nM; for `C=CC(=O)NCCNc1ncnc(N)c1-c1ccc(Oc2ccccc2)cc1` [A18, N-(2-((6-amino-5-(4-phenoxyphenyl)pyrimidin-4-yl)amino)ethyl)acrylamide]: less than 1000 nM.
As for `Nc1ncnc(N[C@@H]2CCN(S(=O)(=O)c3c(F)c(F)c(F)c(F)c3F)C2)c1-c1ccc(Oc2ccccc2)cc1` [A178, (R)-N4-(1-((perfluorophenyl)sulfonyl)pyrrolidin-3-yl)-5-(4-phenoxyphenyl)pyrimidine-4,6-diamine], the IC50 is less than 100 nM.
The same measure for `C=CC(=O)N1CCO[C@@H](COc2ncnc(N)c2-c2ccc(Oc3ccc(C#N)cc3)cc2)C1` [A200, (R)-4-(4-(4-((4-acryloylmorpholin-2-yl)methoxy)-6-aminopyrimidin-5-yl)phenoxy)benzonitrile]: less than 1000 nM; for `Nc1ncnc(Oc2cccc(N3CC=CC3=O)c2)c1-c1ccc(Oc2ccccc2)cc1` [A40, 1-(3-((6-amino-5-(4-phenoxyphenyl)pyrimidin-4-yl)oxy)phenyl)-1H-pyrrol-2(5H)-one]: less than 1000 nM.
